In patent publication US20240342195A1, “AGENT FOR COMBINATION USE COMPRISING T CELL AND/OR B CELL ACTIVITY REGULATOR” (TOKAI UNIVERSITY EDUCATIONAL SYSTEM, priority 2021, published 2024):
“Also recorded” adds a separate entry of the source.

Key:
B cell in PBMCs [1] = test: FCM analysis of PD-1 on B cells of TSST-1-stimulated PBMCs; assay type: cell-based, human; details: TSST-1 and P4/COR stimulation; data not shown
Method: (§1) The PBMCs (final concentration: 1×10^6/mL) were cultured for 3 days at 37° C. in 5% CO2 in 10% FCS-containing RPMI 1640 to which P4 or COR was added in various concentrations with stimulation by 1 μg/mL of toxic shock syndrome toxin-1 (TSST-1). These cells were collected, washed with PBS, and dispensed into a Fisher tube in an amount of 1×10^6 cells/tube. For analysis of a human cell surface marker, a fluorescent-labeled anti-human monoclonal antibody (mAbs) was used. The cells were stained with the mAbs, a reaction was performed for 15 minutes at 4° C., and the resultant was washed with PBS containing 1% (w/v) BSA. Then, the resultant was analyzed by FACS Fortessa, or FACS Verse (BD Bioscience, Franklin Lakes, NJ). In the analysis, a leukocyte gated or lymphocyte gated cells were further gated by expression of human CD45, and then the analysis was performed. A culture supernatant was collected, and 25 μL thereof was dispensed to quantitatively determine cytokine with Legend Plex™ kit from BioLegend.

[2] = system: T cell (CD3 gated) in human PBMCs; test: atezolizumab addition experiment, PD-L1/PD-1 expression on T cell by FCM; assay type: cell-based; details: 0 to 200 μM; TSST-1; 3 days
Method: (§2) As for an experiment of atezolizumab addition, 0 to 200 μM P4 or COR, 1 μM TSST-1, and 100 μg/mL atezolizumab were added to PBMCs, and the resultant was cultured for 72 hours at 37° C. in 5% CO2, followed by analysis by FCM.

[3] = system: CD4 and CD8 T cells in PBMCs; test: FCM analysis of activation/exhaustion markers (CD25, PD-1) on T cells of TSST-1-stimulated PBMCs; assay type: cell-based, human; details: day 3
Method: as §1

B cell in PBMCs [4] = test: restimulation experiment (transient vs continuous P4/COR), PD-L1 on B cells; assay type: cell-based, human; details: TSST-1 3 days
Method: (§3) In a restimulation experiment, PBMCs were cultured for 6 hours at 37° C. in 5% CO2 in 10% FCS-containing RPMI 1640 to which 200 μM P4 or COR was added. These cells were washed, adjusted to a final concentration of 1×10^6/mL, and cultured again in the presence or absence of 200 μM P4 or COR with stimulation by 1 μM TSST-1. After 72 hours, the resultant cells were collected to be analyzed by FCM.

[5] = system: Hu-PBMC-NOG (GVHD onset model); test: GVHD onset model: human PBMCs transplanted to NOG mouse, P4 or COR administered subcutaneously; assay type: in vivo; details: 4 weeks
Method: In the analysis using the GVHD model, PBMCs prepared in the same manner as described above were washed with PBS, and 2.5×10^6 PBMCs were intravenously transplanted to each 8- to 9-week-old NOG mouse. […] At the same time as the administration, the weight was measured. After 4 weeks, the mouse was anesthetized to collect heart blood, and euthanized. From various lymphoid organs excised, human cells were prepared, hemolyzed, and then subjected to FCM. Besides, the lung and the liver were excised, and immunohistochemically stained as follows. A tissue of the mouse was immobilized with 20% formalin (Wako Pure Chemical Industries, Ltd.), and embedded in paraffin. The obtained paraffin block was sliced, and the resultant was subjected to deparaffinization, mounted on a slide glass, and stained with hematoxylin and eosin (HE). In immunohistochemical staining with an anti-human CD45 antibody, the slide was subjected to a heat treatment at 97° C. for 20 minutes, and subjected to an endogenous peroxidase treatment through a reaction with 0.3% H2O2/MetOH at room temperature for 10 minutes. Thereafter, the resultant was blocked with 1% goat serum, and anti-human CD45 (Dako) was added thereto, followed by a reaction overnight at 4° C. The resultant slide was washed 3 times with 0.01 M PBS for 5 minutes, and colored with a DAB solution. The resultant was washed with running water for 3 minutes, and stained with hematoxylin, followed by dehydration and penetration/encapsulation.

[6] = system: CD4 and CD8 T cells in PBMCs; test: restimulation experiment (transient vs continuous P4/COR), PD-1/PD-L1 on T cells; assay type: cell-based, human; details: CD4 and CD8 T cells, TSST-1 3 days
Method: as §3

P3-X63-Ag8-U1 (P3X) = test: proliferating ability of cell line cultured with P4 or COR; assay type: cell-based, mouse; details: cultured 3 days
Method: (§4) Each of human choriocarcinoma cell line JEG-3, BeWo, and embryonic kidney cell line HEK293 was cultured for 10 days at 37° C. in 5% CO2 in a 10% Fetal Calf Serum (FCS)-containing DMEM (Gibuco) to which water-soluble progesterone (P4; water soluble) (Sigma) or cortisol (COR) (Sigma) was added in various concentrations. Each of mouse myeloma cell line P3-X63-Ag8-U1 (P3X) and mouse lymphoma cell line A20 was cultured for 3 days at 37° C. in 5% CO2 in 10% FCS-containing RPMI 1640 to which P4 or COR was added in various concentrations. Proliferation of the cells was evaluated by measuring the number of the cells.

A20 = test: as above; assay type: cell-based, mouse; details: cultured 3 days
Method: as §4

HEK293 = test: as above; assay type: cell-based, human; details: 200 μM, cultured 10 days
Method: as §4

BeWo = test: as above; assay type: cell-based, human; details: 200 μM, cultured 10 days
Method: as §4

JEG-3 = test: as above; assay type: cell-based, human; details: 200 μM, cultured 10 days
Method: as §4

PBMC-NOG-hIL-4-Tg mouse = test: transplantation of P4/COR-cultured PBMCs to NOG-hIL-4-Tg mouse immunized with CH401MAP; assay type: in vivo
[7] = system: Human peripheral blood mononuclear cells (PBMCs); test: cytokine production in PBMCs activated in the presence of P4; assay type: cell-based; details: 0 to 200 μM; PBMCs + TSST-1; 3 days
Method: as §1

[8] = system: B cell (CD19 gated) in human PBMCs; test: atezolizumab addition experiment, PD-L1/PD-1 expression on B cell by FCM; assay type: cell-based; details: TSST-1, 3 days
Method: as §2

[9] = system: Human peripheral blood mononuclear cells (PBMCs); test: number of cells of TSST-1-stimulated PBMCs cultured with P4 or COR; assay type: cell-based; details: PBMCs + TSST-1; 3 days; high concentration
Method: as §1

[10] = 2 mg/head subcutaneously twice a week

## CC(=O)[C@H]1CC[C@H]2[C@@H]3CCC4=CC(=O)CC[C@]4(C)[C@H]3CC[C@]12C [P4, progesterone]
B cell in PBMCs [1]
  PD-1 expression on B cell: not increased
[2]
  PD-1 expression in a T cell: reduction in PD-1 expression dependent on P4 concentration
  PD-L1 expression in a T cell: reduced
[3]; 20 to 200 μM
  activation marker-negative (non-activated) T cells: increased depending on the P4 concentration
[3]; CD4 and CD8 T cells, 200 μM
  later-phase activated (CD25-positive PD-1-positive) T cells: minimally detected
[3]; CD4 and CD8 T cells, 20 to 200 μM
  ratio of later-phase activated (CD25-positive PD-1-positive) T cells: reduced dependent on the P4 concentration
B cell in PBMCs [4]; continuous administration, 200 μM
  PD-L1 expression in B cell: suppressed PD-L1 expression
B cell in PBMCs [4]; transient addition (200 μM 6 hours, washed)
  PD-L1 expression in B cell: tended to maintain the expression; also recorded: tended to rather increase PD-L1 expression
[5]; [10]
  CD8 T cells: tend to increase
  GVHD symptoms: remarkably relieved
  number of spleen cells vs control: rather increased
  weight loss by GVHD: only slightly caused at an initial stage
[5]; anti-human CD45 immunohistochemical staining, 2 mg/head subcutaneously twice a week
  lymphocyte infiltration into a peripheral tissue such as the lung: tended to be suppressed
[5]; continuously administered to humanized NOG mouse of GVHD onset model
  CD62L expression in vivo: maintained CD62L expression in vivo for a long period of 4 weeks
[6]; continuously added, 200 μM
  ratio of later-phase activated (PD-1/PD-L1-positive) cells: remarkably reduced
[6]; transiently added (200 μM 6 hours, washed)
  activation (PD-1/PD-L1-positive cells) vs control group: substantially equivalent to or greater than that of a control group
P3-X63-Ag8-U1 (P3X); 20 μM or less
  proliferation: proliferation suppression was not observed
P3-X63-Ag8-U1 (P3X); high concentration of 200 μm
  proliferation: proliferation suppression was observed
A20; 20 μM or less
  proliferation: proliferation suppression was not observed
A20; high concentration of 200 μm
  proliferation: proliferation suppression was observed
HEK293
  cell proliferating ability: little proliferated
BeWo
  cell proliferating ability: little proliferated
JEG-3
  cell proliferating ability: little proliferated
PBMC-NOG-hIL-4-Tg mouse; PBMCs cultured with 200 μM for 6 hours before transplantation, analysis after 4 weeks
  engraftment ability of transplanted PBMCs: equivalent to that of a control group
PBMC-NOG-hIL-4-Tg mouse; PBMCs cultured with 200 μM for 6 hours before transplantation, plasma after 4 weeks
  specific antibody production (CH401MAP): maintained
PBMC-NOG-hIL-4-Tg mouse; treated PBMCs transplanted to NOG-hIL-4-Tg, 4 weeks
  expression of CD62L in human cells engrafted into the spleen: increased as compared with that in a CTRL mouse
[7]
  cytokine production in culture supernatant (10 cytokines of FIG. 4): suppression of cytokine production was observed depending on the P4 concentration
[8]; 0 to 200 μM
  PD-L1 expression in a B cell: showed PD-L1 expression
[8]; 20 μM
  PD-L1 expression in a B cell: high
[9]
  proliferation (number of cells): suppressed
